# Laboratory results reported in patent US20240024281A1, “METHODS AND COMPOSITIONS FOR TREATING LIVER DISEASES” (INSTITUT NATIONAL DE LA SANTÉ ET DE LA RECHERCHE MÉDICALE, priority 2018, published 2024).
# “Also recorded” adds a separate entry of the source.
# Experiments:
# [1] = system: liver cancer cell (HepG2, Huh7 and Hep3B); test: Liver cancer cell proliferation; type: cell-based; settings: for liver cancer cell proliferation and apoptosis, alone and co-treated with sorafenib (confirmation of the STF-083010 data): data not shown
# Protocol: (§1) FIG. 3A-B: Inhibition of IRE1α RNase signalling with STF potentiates the effectiveness of Sorafenib in reducing liver cancer cell proliferation and inducing apoptosis. Effect of Sorafenib (SORA, 5 μM), STF-083010 (STF, 60 μM) and their combination on (A) liver cancer cell proliferation (HepG2, Huh7 and Hep3B) and on (B) inducing apoptosis. STF-083010 was added one hour before SORA. Stimulations were performed during 24 hours. $p<0.05 when comparing treated to untreated counterpart. Results are expressed as mean with SEM *p<0.05, **p<0.01, ***p<0.001 and ****p<0.0001.
# (§2) FIG. 4: Hyperactive IRE1α RNase triggers secretion of pro-inflammatory markers. Effect of Sorafenib (SORA, […]), Ac-YVAD-CMK (YVAD, 25 μM) and their combination on liver cancer cell proliferation (HepG2) and on inducing apoptosis. Ac-YVAD-CMK (YVAD) was added one hour before SORA. Stimulations were performed during 24 hours. $p<0.05 when comparing treated to untreated counterpart. Results are expressed as mean with SEM *p<0.05, **p<0.01, ***p<0.001 and ****p<0.0001.
# FIG. 5A-B: Co-treatment enhancing apoptosis via IRE1α kinase activity. Effect of Sorafenib (SORA, 5 μM), STF-083010 (STF, 60 μM) and their combination on HepG2 cells proliferation with or without (A) JNK inhibitor SP600125 (SP, 50 μM) pre-treatment or (B) Necrostatin (Nec-1, 50 μM) pre-treatment. Stimulations were performed during 24 hours. $p<0.05 when comparing treated to untreated counterpart. Results are expressed as mean with SEM *p<0.05, **p<0.01, ***p<0.001 and ****p<0.0001.
# xenograft HepG2 cells = test: Xenograft mouse model of HCC, tumor volume; type: in vivo, mice
# Protocol: FIG. 6A-B: Inhibition of IRE1α RNase activity with STF potentiates Sorafenib action in vivo. (A) Protocol timeline for Sorafenib (30 mg/kg i.p. daily) and/or STF-083010 (30 mg/kg i.p. twice a week) injections in mice with xenograft HepG2 cells. (B) Effect of SORA, STF, and their combination on tumor volume in mice. $p<0.05 when comparing treated to untreated counterpart. Results are expressed as mean with SEM *p<0.05.
# HCC cell lines = test: Apoptosis induction in HCC cell lines; type: cell-based; settings: 24 hours
# Protocol: as §1, §2
# HFD-fed BI-1−/− mice = test: HFD- or ND-fed BI-1+/+ and BI-1−/− mice treated with STF-083010 (NASH development); type: in vivo, mouse
# Protocol: FIG. 1A-C: Early Into HFD feeding, limiting the ER stress response by inhibiting IRE1α RNase activity protects from steatosis and hyperglycemia. Starting 2.5 months after HFD feeding, BI-1+/+ and BI-1−/− mice were treated with STF-083010 (30 mg/kg) or vehicle (NT, Kolliphor 16%) twice a week for 2 weeks before sacrifice. (A) Relative liver triglyceride levels.
# (A) Protocol timeline for vehicle (NT, Kolliphor 16%) or STF-083010 (30 mg/kg) injections in HFD-fed BI-1+/+ and BI-1−/− mice. (B) qPCR analysis of hepatic genes involved in lipid synthesis and metabolism (n=3). […] (C) Blood glucose concentrations in fed BI-1+/+ and BI-1−/− mice (n=6).
# All animal procedures were conducted in compliance with French guidelines for the humane care and use of experimental animals. Male mice with targeted disruption of the BI-1 gene representing BI-1+/+(WT) and BI-1−/− littermates on a C57BL/6 background were obtained from Dr. John C. Reed at the Stanford-Burnham Institute for Medical Research (La Jolla, CA, USA)17,18. Experiments conducted with 12-week old mice included: 1) Mice injected intraperitoneally with TM (1 mg/kg) or vehicle and sacrificed 48 hr after treatment (unless otherwise indicated), 2) Animals either fed a ND (A04—Safe Diet, Augy, France) or HFD (60 kJ % fat, D12492-ssniff, Soest, Germany) for up to 9 months, 3) Towards the end of a 3-month ND or HFD, mice were injected with STF-083010 (30 mg/kg) or vehicle twice a week for 2 weeks before sacrifice. Mice were housed in a controlled environment with 12 hr light/dark cycles with water available ad libitum.
# Liver tissue specimens were fixed in 10% buffered formalin, embedded in paraffin, sectioned (5 μm thick) and stained with either H&E, Masson's trichrome, MPO or TUNEL (Roche Molecular Biochemicals, Meylan, France). Specimens were evaluated by microscopy in a blinded manner by a liver pathologist.
# (§3) Total RNA was extracted from liver tissue or cells then reverse-transcribed as previously described15. Real-time quantitative PCR was performed using the ABI PRISM 7500/Step-One Fast Real Time PCR System following the manufacturer's protocols in C3M genomics facilities. See the Supporting Methods for TaqMan gene expression assays.
# (§4) Total protein was isolated from snap-frozen livers or primary hepatocytes homogenized in detergent-containing buffer, normalized for protein content (40 μg/tissue sample and 20 μg/cell sample), and analyzed by SDS-PAGE (8-15% gels) immunoblotting as previously described15. Western blot analyses were performed using antibodies described in Supporting Methods and detected with an enhanced chemiluminescence method (Amersham Biosciences, Piscataway, NJ, USA). Immunoblots were scanned and the signals were quantified using ImageJ software.
# Serum AST and ALT levels were determined using a standardized UV test after activation with pyridoxal-phosphate and serum triglyceride levels were determined by standardized enzymatic colorimetric assay (Roche-Hitachi analyzer Cobas 8000, Meylan, France). Hepatic triglyceride content was measured using a Triglycerides FS 10′ kit (DiaSys, Holzheim, Germany). Cytokines were quantitatively measured by flow cytometry as described15.
# [2] = system: primary hepatocytes isolated from the livers of BI-1−/− and WT mice; test: Primary hepatocyte viability (MTT) with TM or LPS; type: cell-based, mouse
# Protocol: (§5) Hepatocytes from mouse liver were isolated by a two-step collagenase procedure, as we described18,23 and cultured in media detailed in Supporting Methods. When indicated, primary hepatocytes were transfected with Stealth siRNA (targeting BI-1, IRE1α, XBP1 or CHOP with the corresponding control of Low or Medium CG) at 30 nM using Lipofectamine RNAiMAX (ThermoFisher Scientific, Courtaboeuf, France) according to the manufacturer's instructions. After 48 hr of transfection, cells were treated with TM (1 μg/ml) or LPS (100 ng/ml) for the determined times. Primary hepatocytes isolated from the livers of BI-1−/− and WT mice were treated with TM or LPS in the presence or absence of STF-083010 (60 μM) or Ac-YVAD-CMK (25 μM). Cell viability was determined by a colorimetric assay (MTT) detailed in Supporting Methods. Results are presented as a percentage of the control values.
# IRE1α RNase activity = molecular target: T1, IRE1α RNase activity (Mus musculus, UniProt Q9EQY0); test: IRE1α RNase signaling (XBP1 mRNA, sXBP1 protein) in primary hepatocytes from BI-1−/− or WT mice; type: cell-based; settings: BI-1−/− primary hepatocytes; STF-083010 60 μM
# T1 construct: Hepatocytes from mouse liver were isolated by a two-step collagenase procedure; endogenous in cells; host or cells: primary hepatocytes isolated from livers of BI-1−/− and WT mice
# T1 sequence (Q9EQY0 21-977): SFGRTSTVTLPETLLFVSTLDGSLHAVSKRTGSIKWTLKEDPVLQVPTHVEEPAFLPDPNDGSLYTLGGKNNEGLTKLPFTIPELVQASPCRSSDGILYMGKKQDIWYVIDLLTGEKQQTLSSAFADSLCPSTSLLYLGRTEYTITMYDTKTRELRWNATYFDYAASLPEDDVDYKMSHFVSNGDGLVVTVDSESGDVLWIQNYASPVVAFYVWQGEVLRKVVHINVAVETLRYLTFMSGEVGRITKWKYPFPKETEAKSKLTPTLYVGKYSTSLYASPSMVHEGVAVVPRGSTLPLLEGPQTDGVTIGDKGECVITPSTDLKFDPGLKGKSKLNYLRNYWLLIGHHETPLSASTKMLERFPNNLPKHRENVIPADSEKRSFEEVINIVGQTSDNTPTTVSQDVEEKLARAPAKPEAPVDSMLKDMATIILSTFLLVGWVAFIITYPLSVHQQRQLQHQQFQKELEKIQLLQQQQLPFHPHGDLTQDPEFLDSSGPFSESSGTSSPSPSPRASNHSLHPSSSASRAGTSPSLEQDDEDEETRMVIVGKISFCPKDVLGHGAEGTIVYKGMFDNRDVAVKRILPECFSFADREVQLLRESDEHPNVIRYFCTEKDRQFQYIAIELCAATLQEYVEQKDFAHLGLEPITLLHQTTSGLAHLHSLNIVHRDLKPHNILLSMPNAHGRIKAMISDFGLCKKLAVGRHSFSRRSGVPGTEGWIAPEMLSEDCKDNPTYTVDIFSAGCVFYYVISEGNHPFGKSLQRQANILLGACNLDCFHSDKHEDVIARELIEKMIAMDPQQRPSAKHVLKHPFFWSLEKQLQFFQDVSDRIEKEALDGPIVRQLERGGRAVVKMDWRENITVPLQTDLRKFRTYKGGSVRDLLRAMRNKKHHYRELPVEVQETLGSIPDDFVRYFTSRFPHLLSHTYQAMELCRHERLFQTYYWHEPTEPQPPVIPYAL
# Protocol: as §3, §4
# Hepatocytes from mouse liver were isolated by a two-step collagenase procedure, as we described18,23 and cultured in media detailed in Supporting Methods. […] After 48 hr of transfection, cells were treated with TM (1 μg/ml) or LPS (100 ng/ml) for the determined times. […] Cell viability was determined by a colorimetric assay (MTT) detailed in Supporting Methods. […]
# NLRP3 inflammasome = test: Caspase-11 and NLRP3 overexpression in LPS-treated primary hepatocytes; type: cell-based, mouse; settings: LPS-treated BI-1−/− primary hepatocytes; STF-083010 60 μM
# Protocol: as §4
# as §5, with “Results are presented as a percentage of the control values.” left out
# [3] = BI-1−/− mice after 3 months of HFD
# [4] = BI-1−/− mice, twice a week for 2 weeks towards the end of a 3-month HFD
molecule,measurement,setting,value
COc1cc2c(C)c(CC(=O)N3CCOCC3)c(=O)oc2c(C=O)c1O [MKC6688],"liver cancer cell proliferation and apoptosis, alone and co-treated with sorafenib (confirmation of the STF-083010 data)",[1],confirmed
same,sorafenib-mediated tumor suppression (confirmation of the STF-083010 data),xenograft HepG2 cells; data not shown,confirmed
Ac-YVAD-CMK,effectiveness of sorafenib in inducing apoptosis,"HCC cell lines; HepG2, YVAD 25 μM added one hour before Sorafenib, not more efficiently than SFT-083010, FIG. 4",enhances
same,effectiveness of sorafenib in reducing liver cancer cell proliferation,"[1]; HepG2, YVAD 25 μM added one hour before Sorafenib, 24 hours, not more efficiently than SFT-083010, FIG. 4",enhances
"O=S(=O)(N=Cc1c(O)ccc2ccccc12)c1cccs1 [STF-083010, N-[(2-Hydroxy-1-naphthalenyl)methylene]-2-thiophenesulfonamide]",effectiveness of sorafenib in inducing apoptosis,"HCC cell lines; HCC cell lines, co-treated with Sorafenib 5 μM, STF 60 μM, FIG. 3B",improves their effectiveness
same,liver cancer cell proliferation,"[1]; HepG2, Huh7 and Hep3B, 60 μM alone, 24 hours, FIG. 3A",reduces
same,effectiveness of sorafenib in reducing liver cancer cell proliferation,"[1]; co-treated with Sorafenib 5 μM, STF 60 μM added one hour before, 24 hours, FIG. 3A",improves their effectiveness
same,sorafenib-mediated tumor suppression (tumor volume),"xenograft HepG2 cells; STF-083010 30 mg/kg i.p. twice a week with Sorafenib 30 mg/kg i.p. daily, FIG. 6B",increased
same,NASH development,"HFD-fed BI-1−/− mice; BI-1-deficient mice, HFD",rescuing from NASH; also recorded: reverses the propensity
same,histological signs of inflammation and grade-3 steatosis,"HFD-fed BI-1−/− mice; BI-1−/− HFD mice, 30 mg/kg twice a week for 2 weeks",suppressed
same,activation of caspase-1/-11 and NLRP3 proteins,HFD-fed BI-1−/− mice; BI-1−/− HFD-fed mice,counteracted the activation
same,mRNA levels of NLRP3 inflammasome and pro-inflammatory response components,HFD-fed BI-1−/− mice; BI-1−/− HFD-fed mice,normalized
same,collagen accumulation with cellular infiltration,HFD-fed BI-1−/− mice; [3],prevented
same,hepatic Col6a3 upregulation,HFD-fed BI-1−/− mice; [3],significantly limited
same,liver discoloration (macroscopic),"HFD-fed BI-1−/− mice; BI-1−/− mice fed a HFD for 3 months, 30 mg/kg twice a week for 2 weeks",prevented
same,IRE1a endoribonuclease activity in vivo,HFD-fed BI-1−/− mice; [4],effectively counteracted
same,glucose tolerance,HFD-fed BI-1−/− mice; [4],improving
same,"mRNA levels of metabolic master regulators (SREBP1, FASN and c-JUN)","HFD-fed BI-1−/− mice; HFD-fed BI-1−/− mice, liver qPCR, FIG. 2B",within normal mRNA levels
same,lipid droplet diameter in hepatocytes,"HFD-fed BI-1−/− mice; HFD-fed BI-1−/− mice, 30 mg/kg twice a week for 2 weeks",from massive to average size
same,liver triglyceride content,"HFD-fed BI-1−/− mice; HFD-fed BI-1−/− mice, 30 mg/kg twice a week for 2 weeks, FIG. 1A",Normalized
same,liver injury,"HFD-fed BI-1−/− mice; HFD-fed mice, both genotypes",protected from liver injury
same,blood glucose concentrations,"HFD-fed BI-1−/− mice; HFD-fed mice, FIG. 2C",normalization
same,appearance of the liver,HFD-fed BI-1−/− mice; ND-fed mice,did not alter
same,MPO-positive cells,HFD-fed BI-1−/− mice; STF-083010-treated versus untreated mice fed a HFD,significant decrease
same,increase in BI-1 mRNA levels,"HFD-fed BI-1−/− mice; WT mice fed a HFD, FIG. 1C",15%
same,"CHOP/GRP78 ratio, protein and mRNA levels","HFD-fed BI-1−/− mice; livers from BI-1−/− mice, HFD",reduced
same,"expression of IRE1α RNase target sXBP1, protein and mRNA levels","HFD-fed BI-1−/− mice; livers from BI-1−/− mice, HFD",reduced
same,viability of WT hepatocytes,"[2]; STF-083010 alone, 60 μM",compromised the viability
same,viability of BI-1−/− hepatocytes,"[2]; co-treated with TM and LPS, STF-083010 60 μM",improved the viability
same,XBP1 mRNA levels,IRE1α RNase activity,decrease
same,sXBP1 protein,IRE1α RNase activity,decrease
same,overexpression of active caspase-11 and NLRP3,NLRP3 inflammasome,limited
Cc1cc(=O)oc2c(C=O)c(O)ccc12 [4μ8c],"liver cancer cell proliferation and apoptosis, alone and co-treated with sorafenib (confirmation of the STF-083010 data)",[1],confirmed
CN1C(=O)C(Cc2c[nH]c3ccccc23)NC1=S (stereo not shown) [Necrostatin-1],effect of Sorafenib and SFT-083010 on cancer cell proliferation after pre-treatment,"[1]; HepG2, 50 μM pre-treatment, Sorafenib 5 μM, STF 60 μM, 24 hours, FIGS. 5A and 5B",inhibit the effect
